Assay results taken from patent US20210071183A1, “ZINC ASSOCIATED TREATMENT FOR AND DIAGNOSIS OF CACHEXIA” (THE TRUSTEES OF COLUMBIA UNIVERSITY IN THE CITY OF NEW YORK, priority 2018, published 2021).
Where a SMILES comes first, the peptide text is derived from it. The star is where a group is joined. Cbz = O=C(OCc1ccccc1)*

Tests used:
Zip14 expression [1] = assay: Zip14 qRT-PCR in human primary skeletal myoblasts treated with cytokines and signaling pathway inhibitors; format: cell-based; conditions: human primary muscle cells; for Zip14 expression after recombinant cytokine treatment: TNFα 50 ng/ml, TGFβ 10 ng/ml
Protocol: (§1) Treatment with cytokines and signaling pathway inhibitors: Murine C2C12 myoblasts and human primary skeletal myoblasts were serum-starved overnight, and then treated with or without inhibitors of the TGFβ/Smad, […] pathways, which are SB431542 (purchased from Thermo Fisher), CC401 (purchased from Thermo Fisher) and BAY 11-7085 (purchased from Enzo), respectively, followed by treatment with recombinant cytokines purchased from R&D Systems (recombinant mouse TNFα and TGFβ1 at 50 ng/ml and 10 ng/ml, respectively, for C2C12, recombinant human TNFα and TGFβ1 at 50 ng/ml and 10 ng/ml, respectively, for human primary skeletal myoblasts). Cells were pretreated with either vehicle (DMSO) control, or 10 μM of the respective pathway inhibitors for 1 hour, and then treated with TGFβ1 for 9 hours or TNFα for 3 hours before harvest. Cells with different treatments were harvested together for subsequent analysis.

Zip14 expression [2] = assay: Zip14 qRT-PCR in murine C2C12 myoblasts treated with cytokines and signaling pathway inhibitors; format: cell-based, mouse; conditions: for Zip14 expression after recombinant cytokine treatment: murine C2C12 myoblasts, TNFα 50 ng/ml, TGFβ 10 ng/ml
Protocol: as §1

4T1 tumor-bearing mice = assay: Zinc chelator injection in 4T1 tumor-bearing mice; format: in vivo, mouse; conditions: 150 mg/kg body weight daily from 7 days post-tumor cell injection, 4 weeks
Protocol: The effects of zinc chelator injection were analyzed using healthy or C26m2 tumor bearing mice. Excess zinc supplementation exacerbates muscle wasting, while zinc chelation reduces muscle wasting in tumor-bearing mice. […] (A-B) Healthy or C26m2 tumor bearing mice of the indicated genotypes (Zip14 WT or KO) were either treated with regular or zinc-enriched water (25 mM) from the day of tumor cell injection and muscles were collected after […]. Body weight analysis (A) and relative MuRF1/MAFBx mRNA expression levels indicative of muscle wasting (B) are shown. C. Mice were injected with 4T1 tumor cells and were divided into 3 groups, one was provided with regular diet with 86 ppm zinc, second group with 1000 ppm zinc-supplemented diet (high zinc diet) and third group with regular diet with 86 ppm zinc but with zinc chelator injected daily with Sodium diethyldithiocarbamate trihydrate (DEDTC) at 150 mg/kg body weight injected 7 days post-tumor cell injection. Mice were sacrificed after 4 weeks post-tumor cell injection. In all experiments, n=3-8 per group. ns, not significant. *p≤0.05, **p≤0.01, ***p≤0.001 and ****p≤0.0001.

[3] = test system: myosin heavy chain (MyHC); assay: Zinc and MG132 treatment of differentiated C2C12 muscle cells (immunoblot of myofibrillar proteins); format: cell-based, mouse
Protocol: (§2) Zinc and MG132 treatment of muscle cells: 3-day differentiated C2C12 cells were cultured with 50 μM ZnCI2 in differentiation medium for 24 hours. Cells were then used for immunofluorescence staining, gene expression analysis and immunoblot analysis. For MG-132 (benzyloxycarbonylleucyl-leucyl-leucine aldehyde, a proteasome inhibitor) treatment, 3-day differentiated C2C12 cells expressing Zip14 (Adeno-Zip14) were treated with 50 μM ZnCI2 for 24 hours, and then treated with either vehicle (DMSO) or MG132 (50 μM) for 3 hours prior to harvest for immunoblot analysis.
Subcellular fractionation of differentiated C2C12 muscle cells: Fractionation of soluble and myofibrillar components was performed. Differentiated C2C12 muscle cells were collected in cold lysis buffer (20 mM of Tris-HCl pH 7.2, 5 mM of EGTA, 100 mM of KCl, 1% Triton X-100, and 1× protease and phosphatase inhibitor cocktail), and lysed by gentle agitation at 4° C. for 1 h. After centrifugation at 3,000×g for 30 mins at 4° C., the cytosolic fraction (supernatant) was collected and stored in −80° C. The pellet (myofibrils) was washed twice with wash buffer (20 mM of Tris-HCl, pH 7.2, 100 mM of KCl, and 1 mM of DTT). After centrifugation at 3,000×g for 10 mins at 4° C., myofibrillar fraction was extracted in ice-cold extraction buffer (0.6 M of KCl, 1% Triton X-100, 2 mM of EDTA, 1 mM of DTT and 1× protease and phosphatase inhibitor cocktail) with shaking at 4° C. The purified myofibrillar fraction was collected after centrifugation for 3,000×g at 4° C. and stored in −80° C. until further use.

[4] = Food and water intake, behavioral coordination, liver and kidney function with zinc-supplemented water; format: in vivo, mouse; conditions: C26m2 tumor-bearing mice with excess zinc supplementation
Protocol: (§3) Zinc-supplemented water treatment for mice: ZnS04 solution was purchased from Sigma. Zip14 WT and KO mice were given either regular water or zinc-supplemented drinking water (25 mM ZnS04 in their drinking water). Zinc water was started from the day of tumor injection in the tumor-bearing group and in matched uninjected controls, which continued until the animals were euthanized at 15 days. Tumors were not resected because cachectic symptoms started to develop early and were visible between 8-10 days in the tumor-bearing Zip14 WT group of mice on zinc-enriched water.
Behavioral coordination tests in mice: Rotamex-5 (Columbus Instruments) with a rod diameter of 3 cm, was used for testing coordination in mice. In this setup, automatic fall detection is implemented within each lane by a series of photocells placed above the rotating rod. The speed of the rotating rod is programmed for either constant or accelerated modes. […] Latency to fall is detected with 0.1 second temporal resolution. […] For each mouse, an average of 3 runs are recorded, with 5 minutes rest between each run. The speed that the rod is spinning at when the mouse falls is measured in RPMs. The time it takes for the mouse to fall is measured in seconds. […] When the mice fall off the speed of the rod and amount of time the mouse was on the rod are recorded. […]

[5] = test system: C26m2 tumor-bearing Zip14 WT and KO mice; assay: Zinc-supplemented water treatment for mice; format: in vivo, mouse
Protocol: as §3

[6] = test system: Zip14-expressing myoblasts; assay: Muscle differentiation assays with zinc; format: cell-based, mouse
Protocol: Adenoviral infection: C2C12 cells or mouse primary myoblasts were cultured overnight. C2C12 cells were infected with adenovirus expressing either GFP (green fluorescent protein) control (Adeno-GFP) or mouse Zip14 (Adeno-Zip14, purchased from Vector Biolabs). Primary myoblasts were infected with adenovirus expressing either GFP control (Adeno-GFP) or mouse Zip14 (Adeno-Zip14).
Muscle differentiation assays: Differentiation was initiated after adenoviral infection by switching the growth medium to differentiation medium (DMEM containing 2% horse serum and 5 μg/ml of insulin for C2C12 cells; DMEM containing 2% horse serum without insulin for primary myoblasts) the day after infection. Differentiation medium was changed at designated time-points.
as §2

C2C12 cells = assay: Cell viability assay (MTS, cleaved caspase-3); format: cell-based; conditions: Zip14-expressing cells; 50 μM ZnCl2 24 h
Protocol: Cell viability assay: Viability of C2C12 cells was determined by MTS assay (a cell proliferation assay based on a colorimetric method for quantification of viable cells in proliferation and cytotoxicity assay) using CellTiter 96® Aqueous One Solution Cell Proliferation Assay kit (purchased from Promega) containing tetrazolium compound. C2C12 cells infected with Adeno-GFP control or Adeno-Zip14 were plated in growth media and differentiated. Cells were treated with 50 μM of ZnCl2 for 24 h. Cell viability was measured by adding 100 μl of growth medium without phenol red to each well after aspirating media from the wells. 20 μl of CellTiter 96 AGueous One Solution Reagent was added to each well. After 1 hour of incubation at 37° C. in CO2 incubator, the amount of soluble formazan was determined by absorbance at 450 nm. Undifferentiated and differentiated C2C12 cells were collected for immunoblot analysis probing for cleaved-caspase-3 expression to assess cell-death. C2C12 cells treated with the indicated doses of doxorubicin (doxo) (purchased from Sigma) served as positive control for both types of viability assays.

[7] = Zip14-wild-type tumor-bearing mice (C26m2), 25 mM ZnSO4 drinking water
[8] = Zip14-expressing myotubes treated with zinc (50 μM) for 24 hours

CC(C)(C)c1ccc(S(=O)(=O)/C=C/C#N)cc1 [Bay11-7085]
Zip14 expression (TNFα-induced) (Zip14 expression [1]; TNFα 50 ng/ml 3 hours, 10 μM inhibitor pretreated 1 hour, qRT-PCR): blocked
Zip14 expression (TNFα-induced) (Zip14 expression [2]; murine C2C12 cells, TNFα 50 ng/ml 3 hours, 10 μM inhibitor pretreated 1 hour, qRT-PCR): blocked

CCN(CC)C(=S)[S-].O.O.O.[Na+] [DEDTC, Sodium diethyldithiocarbamate trihydrate]
muscle wasting (4T1 tumor-bearing mice): reduces

CC(C)C[C@@H](C=O)NC(=O)[C@H](CC(C)C)NC(=O)[C@H](CC(C)C)NC(=O)OCc1ccccc1 [MG132, benzyloxycarbonylleucyl-leucyl-leucine aldehyde, reference compound] (Cbz-Leu-Leu-Leu-aldehyde)
MyHC loss ([3]; Zip14-expressing 3-day differentiated C2C12, 50 μM ZnCl2 24 h, MG132 50 μM 3 hours prior to harvest): could be blocked

NC(=O)c1ccc(-c2nc(-c3ccc4c(c3)OCO4)c(-c3ccccn3)[nH]2)cc1 [SB431542]
Zip14 expression (TGFβ-induced) (Zip14 expression [1]; TGFβ 10 ng/ml 9 hours, 10 μM inhibitor pretreated 1 hour, qRT-PCR): blocked
Zip14 expression (TGFβ-induced) (Zip14 expression [2]; murine C2C12 cells, TGFβ 10 ng/ml 9 hours, 10 μM inhibitor pretreated 1 hour, qRT-PCR): blocked

[Zn] [zinc]
food or water intake, behavior, liver or kidney function [4]: No changes
body weight loss [5, 7]: substantial acceleration
muscle atrophy [5, 7]: increase
growth kinetics ([5]; absence of tumors, Zip14-wild-type and knockout mice, 25 mM ZnSO4 drinking water): no detrimental effect
muscle wasting ([5]; tumor-bearing mice, zinc-enriched water (25 mM) or 1000 ppm zinc-supplemented diet): exacerbates
MyHC protein [3, 8]: striking loss
skeletal actin, tropomyosin, troponin, desmin and myosin light chain (MyLC) protein [3, 8]: remained unchanged
differentiation of myoblasts (MyHC expression, morphology) ([6]; Zip14-expressing C2C12 and primary myoblasts, 50 μM ZnCl2): selectively blocked
MyoD, Mef2c, and Myf5 transcription ([6]; Zip14-expressing C2C12 myoblasts, 50 μM ZnCl2 24 hours, qRT-PCR): transcriptional repression
viability (C2C12 cells): no loss

TGFβ: recombinant mouse or human TGFβ1 cytokine from R&D Systems
Zip14 expression after recombinant cytokine treatment (Zip14 expression [1]): significantly induced
Zip14 expression after recombinant cytokine treatment (Zip14 expression [2]): significantly induced

TNFα
Zip14 expression after recombinant cytokine treatment (Zip14 expression [1]): significantly induced
Zip14 expression after recombinant cytokine treatment (Zip14 expression [2]): significantly induced
